Measurements from US20100099561A1, “HETEROBICYCLIC ALKYLTHIO-BRIDGED ISOXAZOLINES” (E.I. DU PONT DE NEMOURS AND COMPANY, priority 2008, published 2010).

What was measured:
Type in all cases: in vivo
[1] = tested on: large crabgrass (Digitaria sanguinalis); experiment: Test A preemergence, large crabgrass; conditions: 0 to 100 scale (0 no effect, 100 complete control)
Procedure, shortened: (§1)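 In a greenhouse, loam–sand potted species were treated with surfactant-formulated compound, preemergence via directed soil spray and postemergence at 2–10 cm height, one- to two-leaf stage. Response assessed visually at about ten days; 100 means complete control.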

[2] = tested on: giant foxtail (Setaria faberi); experiment: Test A preemergence, giant foxtail; conditions: 0 to 100 scale (0 no effect, 100 complete control)
Procedure, shortened: as §1

[3] = tested on: morningglory (Ipomoea spp.); experiment: Test A preemergence, morningglory; conditions: 0 to 100 scale (0 no effect, 100 complete control)
Procedure, shortened: as §1

[4] = tested on: pigweed (Amaranthus retroflexus); experiment: Test A preemergence, pigweed; conditions: 0 to 100 scale (0 no effect, 100 complete control)
Procedure, shortened: as §1

[5] = tested on: velvetleaf (Abutilon theophrasti); experiment: Test A preemergence, velvetleaf; conditions: 0 to 100 scale (0 no effect, 100 complete control)
Procedure, shortened: as §1

[6] = tested on: wheat (Triticum aestivum); experiment: Test A preemergence, wheat; conditions: 0 to 100 scale (0 no effect, 100 complete control)
Procedure, shortened: as §1

[7] = tested on: large crabgrass (Digitaria sanguinalis); experiment: Test A postemergence, large crabgrass; conditions: 0 to 100 scale (0 no effect, 100 complete control)
Procedure, shortened: as §1

[8] = tested on: giant foxtail (Setaria faberi); experiment: Test A postemergence, giant foxtail; conditions: 0 to 100 scale (0 no effect, 100 complete control)
Procedure, shortened: as §1

[9] = tested on: pigweed (Amaranthus retroflexus); experiment: Test A postemergence, pigweed; conditions: 0 to 100 scale (0 no effect, 100 complete control)
Procedure, shortened: as §1

[10] = tested on: velvetleaf (Abutilon theophrasti); experiment: Test A postemergence, velvetleaf; conditions: 0 to 100 scale (0 no effect, 100 complete control)
Procedure, shortened: as §1

[11] = tested on: wheat (Triticum aestivum); experiment: Test A postemergence, wheat; conditions: 0 to 100 scale (0 no effect, 100 complete control)
Procedure, shortened: as §1

[12] = tested on: wheat (Triticum aestivum); experiment: Test B preemergence, wheat; conditions: Preemergence, scale 0 to 100
From the text: (§2) Seeds of plant species selected from blackgrass (Alopecurus myosuroides), downy bromegrass (Bromus tectorum), green foxtail (Setaria viridis), Italian ryegrass (Lolium multiflorum), wheat (Triticum aestivum), wild oat (Avena fatua), catchweed bedstraw (Galium aparine), bermudagrass (Cynodon dactylon), Surinam grass (Brachiaria decumbens), cocklebur (Xanthium strumarium), corn (Zea mays), large crabgrass (Digitaria sanguinalis), woolly cupgrass (Eriochloa villosa), giant foxtail (Setaria faberii), goosegrass (Eleusine indica), johnsongrass (Sorghum halepense), kochia (Kochia scoparia), lambsquarters (Chenopodium album), morningglory (Ipomoea coccinea), nightshade (eastern black nightshade, Solanum ptycanthum), yellow nutsedge (Cyperus esculentus), pigweed (Amaranthus retroflexus), ragweed (common ragweed, Ambrosia elatior), soybean (Glycine max), sunflower (common oilseed sunflower, Helianthus annuus), Russian thistle (Salsola kali), and velvetleaf (Abutilon theophrasti) were planted into a blend of loam soil and sand and treated preemergence with test compounds formulated in a non-phytotoxic solvent mixture which included a surfactant. Treated plants and controls were maintained in a greenhouse for 13 to 15 days, after which time all species were compared to controls and visually evaluated. Plant response ratings, summarized in Table B, are based on a scale of 0 to 100 where 0 is no effect and 100 is complete control. A dash (-) response means no test result.

[13] = tested on: wild oat (Avena fatua); experiment: Test B preemergence, wild oat; conditions: scale 0 to 100
From the text: as §2

[14] = tested on: corn (Zea mays); experiment: Test B preemergence, corn; conditions: scale 0 to 100
From the text: as §2

[15] = tested on: giant foxtail (Setaria faberii); experiment: Test B preemergence, giant foxtail; conditions: scale 0 to 100
From the text: as §2

[16] = tested on: johnsongrass (Sorghum halepense); experiment: Test B preemergence, johnsongrass; conditions: scale 0 to 100
From the text: as §2

[17] = tested on: morningglory (Ipomoea coccinea); experiment: Test B preemergence, morningglory; conditions: scale 0 to 100
From the text: as §2

[18] = tested on: nightshade (eastern black nightshade, Solanum ptycanthum); experiment: Test B preemergence, nightshade; conditions: scale 0 to 100
From the text: as §2

[19] = tested on: rice (Oryza sativa); experiment: Test B flooded paddy test, rice; conditions: Flood, scale 0 to 100
Procedure, shortened: (§3)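 2-leaf plants; pots flooded 3 cm above soil; compound added to paddy water; depth maintained. Greenhouse 13–15 d. Visual rating vs controls, 0 (no effect) to 100 (complete control); dash = no result.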

[20] = tested on: ducksalad (Heteranthera limosa); experiment: Test B flooded paddy test, ducksalad; conditions: Flood, scale 0 to 100
Procedure, shortened: as §3

## CC1(C)CC(S(=O)(=O)Cc2c(C(F)(F)C(F)(F)F)nc3n(c2=O)CCCC3)=NO1 [Compound 21]
[1]; 125 g ai/ha
  Plant response rating, Crabgrass, Large: 90
[1]; 500 g ai/ha
  Plant response rating, Crabgrass, Large: 100
[2]; 125 g ai/ha
  Plant response rating, Foxtail, Giant: 90
[2]; 500 g ai/ha
  Plant response rating, Foxtail, Giant: 100
[3]; 125 g ai/ha
  Plant response rating, Morningglory: 0
[3]; 500 g ai/ha
  Plant response rating, Morningglory: 50
[4]; 125 g ai/ha
  Plant response rating, Pigweed: 0
[4]; 500 g ai/ha
  Plant response rating, Pigweed: 100
[5]; 125 g ai/ha
  Plant response rating, Velvetleaf: 0
[5]; 500 g ai/ha
  Plant response rating, Velvetleaf: 60
[6]; 125 g ai/ha
  Plant response rating, Wheat: 0
[6]; 500 g ai/ha
  Plant response rating, Wheat: 40
[7]; 125 g ai/ha
  Plant response rating, Crabgrass, Large: 50
[7]; 500 g ai/ha
  Plant response rating, Crabgrass, Large: 80
[8]; 125 g ai/ha
  Plant response rating, Foxtail, Giant: 60
[8]; 500 g ai/ha
  Plant response rating, Foxtail, Giant: 70
[9]; 125 g ai/ha
  Plant response rating, Pigweed: 0
[9]; 500 g ai/ha
  Plant response rating, Pigweed: 10
[10]; 125 g ai/ha
  Plant response rating, Velvetleaf: 0
[10]; 500 g ai/ha
  Plant response rating, Velvetleaf: 10
[11]; 125 g ai/ha
  Plant response rating, Wheat: 0
[11]; 500 g ai/ha
  Plant response rating, Wheat: 20
[12]; 16 g ai/ha
  Plant response rating, Wheat: 0
[12]; 31 g ai/ha
  Plant response rating, Wheat: 0
[12]; 62 g ai/ha
  Plant response rating, Wheat: 0
[12]; 125 g ai/ha
  Plant response rating, Wheat: 0
[13]; 16 g ai/ha
  Plant response rating, Oat, Wild: 0
[13]; 31 g ai/ha
  Plant response rating, Oat, Wild: 30
[13]; 62 g ai/ha
  Plant response rating, Oat, Wild: 30
[13]; 125 g ai/ha
  Plant response rating, Oat, Wild: 40
[14]; 16 g ai/ha
  Plant response rating, Corn: 0
[14]; 31 g ai/ha
  Plant response rating, Corn: 0
[14]; 62 g ai/ha
  Plant response rating, Corn: 0
[14]; 125 g ai/ha
  Plant response rating, Corn: 10
[15]; 16 g ai/ha
  Plant response rating, Foxtail, Giant: 0
[15]; 31 g ai/ha
  Plant response rating, Foxtail, Giant: 60
[15]; 62 g ai/ha
  Plant response rating, Foxtail, Giant: 80
[15]; 125 g ai/ha
  Plant response rating, Foxtail, Giant: 85
[16]; 16 g ai/ha
  Plant response rating, Johnsongrass: 0
[16]; 31 g ai/ha
  Plant response rating, Johnsongrass: 30
[16]; 62 g ai/ha
  Plant response rating, Johnsongrass: 60
[16]; 125 g ai/ha
  Plant response rating, Johnsongrass: 98
[17]; 16 g ai/ha
  Plant response rating, Morningglory: 0
[17]; 31 g ai/ha
  Plant response rating, Morningglory: 10
[17]; 62 g ai/ha
  Plant response rating, Morningglory: 80
[17]; 125 g ai/ha
  Plant response rating, Morningglory: 100
[18]; 16 g ai/ha
  Plant response rating, Nightshade: 50
[18]; 31 g ai/ha
  Plant response rating, Nightshade: 50
[18]; 62 g ai/ha
  Plant response rating, Nightshade: 75
[18]; 125 g ai/ha
  Plant response rating, Nightshade: 90
[19]; 62 g ai/ha
  Plant response rating, Rice: 0
[19]; 250 g ai/ha
  Plant response rating, Rice: 0
[20]; 62 g ai/ha
  Plant response rating, Ducksalad: 0
[20]; 250 g ai/ha
  Plant response rating, Ducksalad: 0

## CC1(C)CC(S(=O)(=O)Cc2c(C(F)(F)F)nc3n(c2=O)CCCC3)=NO1 [Compound 8, 3-[[(4,5-dihydro-5,5-dimethyl-3-isoxazolyl)sulfonyl]methyl]-6,7,8,9-tetrahydro-2-(trifluoromethyl)-4H-pyrido[1,2-α]pyrimidin-4-one]
[1]; 125 g ai/ha
  Plant response rating, Crabgrass, Large: 90
[1]; 500 g ai/ha
  Plant response rating, Crabgrass, Large: 100
[2]; 125 g ai/ha
  Plant response rating, Foxtail, Giant: 100
[2]; 500 g ai/ha
  Plant response rating, Foxtail, Giant: 100
[3]; 125 g ai/ha
  Plant response rating, Morningglory: 20
[3]; 500 g ai/ha
  Plant response rating, Morningglory: 90
[4]; 125 g ai/ha
  Plant response rating, Pigweed: 30
[4]; 500 g ai/ha
  Plant response rating, Pigweed: 100
[5]; 125 g ai/ha
  Plant response rating, Velvetleaf: 20
[5]; 500 g ai/ha
  Plant response rating, Velvetleaf: 90
[6]; 125 g ai/ha
  Plant response rating, Wheat: 0
[6]; 500 g ai/ha
  Plant response rating, Wheat: 60
[7]; 125 g ai/ha
  Plant response rating, Crabgrass, Large: 60
[7]; 500 g ai/ha
  Plant response rating, Crabgrass, Large: 90
[8]; 125 g ai/ha
  Plant response rating, Foxtail, Giant: 70
[8]; 500 g ai/ha
  Plant response rating, Foxtail, Giant: 90
[9]; 125 g ai/ha
  Plant response rating, Pigweed: 10
[9]; 500 g ai/ha
  Plant response rating, Pigweed: 60
[10]; 125 g ai/ha
  Plant response rating, Velvetleaf: 50
[10]; 500 g ai/ha
  Plant response rating, Velvetleaf: 70
[11]; 125 g ai/ha
  Plant response rating, Wheat: 20
[11]; 500 g ai/ha
  Plant response rating, Wheat: 60
[12]; 16 g ai/ha
  Plant response rating, Wheat: 0
[12]; 31 g ai/ha
  Plant response rating, Wheat: 0
[12]; 62 g ai/ha
  Plant response rating, Wheat: 0
[12]; 125 g ai/ha
  Plant response rating, Wheat: 40
[13]; 16 g ai/ha
  Plant response rating, Oat, Wild: 0
[13]; 31 g ai/ha
  Plant response rating, Oat, Wild: 0
[13]; 62 g ai/ha
  Plant response rating, Oat, Wild: 35
[13]; 125 g ai/ha
  Plant response rating, Oat, Wild: 90
[14]; 16 g ai/ha
  Plant response rating, Corn: 10
[14]; 31 g ai/ha
  Plant response rating, Corn: 15
[14]; 62 g ai/ha
  Plant response rating, Corn: 45
[14]; 125 g ai/ha
  Plant response rating, Corn: 55
[15]; 16 g ai/ha
  Plant response rating, Foxtail, Giant: 80
[15]; 31 g ai/ha
  Plant response rating, Foxtail, Giant: 90
[15]; 62 g ai/ha
  Plant response rating, Foxtail, Giant: 98
[15]; 125 g ai/ha
  Plant response rating, Foxtail, Giant: 100
[16]; 16 g ai/ha
  Plant response rating, Johnsongrass: 75
[16]; 31 g ai/ha
  Plant response rating, Johnsongrass: 90
[16]; 62 g ai/ha
  Plant response rating, Johnsongrass: 100
[16]; 125 g ai/ha
  Plant response rating, Johnsongrass: 100
[17]; 16 g ai/ha
  Plant response rating, Morningglory: 0
[17]; 31 g ai/ha
  Plant response rating, Morningglory: 0
[17]; 62 g ai/ha
  Plant response rating, Morningglory: 20
[17]; 125 g ai/ha
  Plant response rating, Morningglory: 80
[18]; 16 g ai/ha
  Plant response rating, Nightshade: 0
[18]; 31 g ai/ha
  Plant response rating, Nightshade: 65
[18]; 62 g ai/ha
  Plant response rating, Nightshade: 75
[18]; 125 g ai/ha
  Plant response rating, Nightshade: 98
[19]; 62 g ai/ha
  Plant response rating, Rice: 0
[19]; 250 g ai/ha
  Plant response rating, Rice: 0
[20]; 62 g ai/ha
  Plant response rating, Ducksalad: 0
[20]; 250 g ai/ha
  Plant response rating, Ducksalad: 20
